{"source": "ChEMBL document CHEMBL3886620", "about": "“Substituted imidazopyrazines as Akt kinase inhibitors” (2016)", "key": {"[1]": {"target": "RAC-alpha serine/threonine-protein kinase (Homo sapiens, UniProt P31749)", "sequence (P31749 whole entry)": "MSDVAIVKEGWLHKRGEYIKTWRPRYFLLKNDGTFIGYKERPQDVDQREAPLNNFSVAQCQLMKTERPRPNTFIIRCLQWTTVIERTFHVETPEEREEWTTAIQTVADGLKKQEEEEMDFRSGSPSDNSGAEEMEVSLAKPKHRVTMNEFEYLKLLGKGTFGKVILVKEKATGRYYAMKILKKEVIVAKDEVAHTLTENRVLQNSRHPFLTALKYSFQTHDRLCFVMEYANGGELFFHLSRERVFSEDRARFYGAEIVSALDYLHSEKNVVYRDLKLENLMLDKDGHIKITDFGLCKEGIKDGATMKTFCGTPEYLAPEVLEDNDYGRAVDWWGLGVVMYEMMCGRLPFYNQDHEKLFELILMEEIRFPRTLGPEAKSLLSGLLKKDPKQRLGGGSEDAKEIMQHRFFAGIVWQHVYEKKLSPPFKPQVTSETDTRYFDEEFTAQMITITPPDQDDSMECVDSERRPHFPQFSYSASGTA", "assay": "(§1) Akt1 TR-FRET assay: His-tagged human recombinant kinase full-length Akt1 expressed in insect cells was purchased form Invitrogen (part number PV 3599). As substrate for the kinase reaction the biotinylated peptide biotin-Ahx-KKLNRTLSFAEPG (C-terminus in amide form) was used which can be purchased e.g. from the company Biosynthan GmbH (Berlin-Buch, Germany). For the assay 50 nl of a 100 fold concentrated solution of the test compound in DMSO was pipetted into a black low volume 384 well microtiter plate (Greiner Bio-One, Frickenhausen, Germany), 2 μl of a solution of Akt1 in assay buffer [50 mM TRIS/HCl pH 7.5, 5 mM MgCl2, 1 mM dithiothreitol, 0.02% (v/v) Triton X-100 (Sigma)] were added and the mixture was incubated for 15 min at 22 °C. to allow prebinding of the test compounds to the enzyme before the start of the kinase reaction. Then the kinase reaction was started by the addition of 3 μl of a solution of adenosine-tri-phosphate (ATP, 16.7 μM=>final conc. in the 5 μl assay volume is 10 μM) and substrate (1.67 μM=>final conc. in the 5 μl assay volume is 1 μM) in assay buffer and the resulting mixture was incubated for a reaction time of 60 min at 22 °C. […]"}, "[2]": {"target": "RAC-beta serine/threonine-protein kinase (Homo sapiens, UniProt P31751)", "sequence (P31751 whole entry)": "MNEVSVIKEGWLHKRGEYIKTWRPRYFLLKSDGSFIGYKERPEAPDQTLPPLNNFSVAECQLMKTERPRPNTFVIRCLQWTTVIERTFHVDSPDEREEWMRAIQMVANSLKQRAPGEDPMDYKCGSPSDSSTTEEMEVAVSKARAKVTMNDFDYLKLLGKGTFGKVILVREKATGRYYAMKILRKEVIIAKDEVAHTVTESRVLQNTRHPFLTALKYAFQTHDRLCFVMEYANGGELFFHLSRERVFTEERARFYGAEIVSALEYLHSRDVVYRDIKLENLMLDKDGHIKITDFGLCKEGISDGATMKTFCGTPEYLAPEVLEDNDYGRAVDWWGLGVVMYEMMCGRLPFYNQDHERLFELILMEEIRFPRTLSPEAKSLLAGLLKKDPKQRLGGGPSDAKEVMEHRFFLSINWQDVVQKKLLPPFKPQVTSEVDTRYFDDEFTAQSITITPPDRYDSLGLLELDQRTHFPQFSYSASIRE", "assay": "as §1, with “Akt2 TR-FRET” for “Akt1 TR-FRET”, “full-length Akt2” for “full-length Akt1”, “cells and activated by PDK1” for “cells”, “purchased from” for “purchased form”, “PV 3975).” for “PV 3599).”, “of Akt2” for “of Akt1”"}}, "data": [{"smiles": "CCOC(=O)c1cn2c(-c3ccccc3)c(-c3ccc(C4(N)CCC4)cc3)nc2cn1", "values": [{"measurement": "IC50", "setting": "[1]", "result": 100, "unit": "nM"}, {"measurement": "IC50", "setting": "[2]", "result": 130, "unit": "nM"}]}]}
